In article PMC12440824, “Chimeric deubiquitinase engineering reveals structural basis for specific inhibition of the mitophagy regulator USP30” (Nature Structural & Molecular Biology, 2025):
Several values for one entry are separate records, joined by “and”; a condition that tells them apart may be missing. Identical values can stand only once.

Legend:
USP30^c1 = target: T1, USP30^c1 (Homo sapiens, UniProt Q70CQ3, DEL179-208/DEL211-214/DEL358-428/F348D/I353E/M350S/N216S/S215G); experiment: Ub–RhoG cleavage enzyme inhibition assay, USP30 construct 1; format: biochemical; details: for IC50: Ub–RhoG cleavage, 1.5 h pre-incubation, mean ± s.e.m. from curve fitting; for USP30c1 activity: mean n=3
T1 sequence (Q70CQ3 with tags, fused parts or gaps DEL179-208/DEL211-214/S215G/N216S/F348D/M350S/I353E/DEL358-428): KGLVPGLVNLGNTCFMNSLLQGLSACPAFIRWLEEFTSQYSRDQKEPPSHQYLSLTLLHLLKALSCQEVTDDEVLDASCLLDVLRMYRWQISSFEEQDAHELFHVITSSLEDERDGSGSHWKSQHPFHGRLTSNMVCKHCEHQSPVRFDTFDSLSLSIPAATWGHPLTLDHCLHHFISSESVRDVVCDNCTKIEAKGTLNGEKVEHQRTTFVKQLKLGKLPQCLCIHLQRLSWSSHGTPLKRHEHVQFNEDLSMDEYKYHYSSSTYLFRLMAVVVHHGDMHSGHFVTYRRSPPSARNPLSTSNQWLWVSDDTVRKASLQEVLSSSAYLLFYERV
Description: Enzyme kinetics were performed in black, low-volume, non-binding-surface 384-well plates. […] Next, 10 µl of 2× enzyme solution was added in triplicate to the plate. The reaction was started by adding 10 µl of 2× substrate solution. […] Inhibitor solution (4×) was added to 4× enzyme solution to create a 2× enzyme–inhibitor mixture. Next, 10 µl of this 2× enzyme–inhibitor mixture was then added to the plate in triplicate, and the plate was incubated at room temperature for 90 min. The reaction was started by adding 10 µl of 2× Ub–RhoG substrate. […] Data were analyzed with GraphPad Prism.

USP30^ch3 A162S = USP30^ch3 A162S (Homo sapiens, UniProt Q70CQ3, A162S, form not given); experiment: Thermal shift assay, USP30 ch3 A162S; format: binding; details: 20 μM inhibitor
Description: (§1) The thermal stability of USP30 constructs and effects of either inhibitor or Ub-PA binding were determined by thermal shift assays. Inhibitor, Ub-PA and SYPRO orange dye (Sigma, 5,000× stock in DMSO) solutions were prepared in 1× PBS, 4 mM DTT. Inhibitor/Ub-PA was prediluted to 100 µM, and SYPRO orange dye was prediluted to 50× (from the commercial stock). Mixtures of protein, inhibitor/Ub-PA and SYPRO were prepared with inhibitor/Ub-PA at a final concentration of 20 μM, SYPRO at a final concentration of 4× and protein at a final concentration of 2 μM for c1, 4 μM for ch1, ch4 and c2 and 3 μM for ch2 and ch3. Samples were added in triplicate to a white 96-well PCR plate (Bio-Rad). Fluorescence intensity was monitored (excitation, 450–490 nm; emission, 560–580 nm) at a gradient of 20–90 °C (increment of 0.3 °C, hold for 5 s before read) on a real-time PCR system (Bio-Rad).

USP30^ch4 = experiment: Thermal shift assay, USP30 ch4; format: binding, human; details: 20 μM inhibitor; for ΔTm, USP30^ch4: replicates or average
Description: as §1

[1] = test system: T2, endogenous USP30 in HEK293 cells; experiment: Cellular ubiquitin probe competition, endogenous USP30; format: cell-based, human; details: 8 µM compound, 2 h; HA-Ub-PA probe in lysate
T2 construct: Target engagement assay with endogenous USP30; endogenous in cells; host or cells: HEK293 (DSMZ ACC 305)
Description: Cells were seeded at 8 × 10^5 cells per well and grown for 48 h. Compounds (2 µM for overexpressed USP30, 8 µM for endogenous USP30) or DMSO were added for 2 h in freshly supplied medium. The medium was aspirated, and cells were washed once with ice-cold PBS. Cells were collected by scraping in lysis buffer (150 mM NaCl, 250 mM sucrose, 50 mM Tris, pH 8.0, 5 mM TCEP) supplemented with EDTA-free complete protease inhibitor cocktail and benzonase. Suspended cells were homogenized by 12 bursts of a microtip probe sonicator (Branson Sonifier 450) at 10% amplitude with pulses of 1 s on ice. Remaining cell debris was separated by centrifugation (20,817g, 5 min, 4 °C). HA-Ub-PA probe was added to the cleared lysate (approximately 2–4 mg ml^−1) at a final concentration of 10 μM when indicated. After incubation for 10 min at room temperature, reactions were quenched by the addition of 4× reducing LDS sample buffer. Samples were resolved by SDS–PAGE and further analyzed via western blot.
Using a Trans-Blot Turbo system (Bio-Rad, 1.0 A, 25 V, 30 min), proteins were blotted onto a nitrocellulose membrane. […] Images were recorded on a ChemiDoc MP Imaging System (Bio-Rad).

USP30^ch2 = USP30^ch2 (Homo sapiens, UniProt Q70CQ3); experiment: Thermal shift assay, USP30 ch2; format: binding; details: 20 μM inhibitor
Description: as §1

[2] = pH 8, read-out: USP30c1 activity

Sequence of USP30^ch2 (Q70CQ3 64-502): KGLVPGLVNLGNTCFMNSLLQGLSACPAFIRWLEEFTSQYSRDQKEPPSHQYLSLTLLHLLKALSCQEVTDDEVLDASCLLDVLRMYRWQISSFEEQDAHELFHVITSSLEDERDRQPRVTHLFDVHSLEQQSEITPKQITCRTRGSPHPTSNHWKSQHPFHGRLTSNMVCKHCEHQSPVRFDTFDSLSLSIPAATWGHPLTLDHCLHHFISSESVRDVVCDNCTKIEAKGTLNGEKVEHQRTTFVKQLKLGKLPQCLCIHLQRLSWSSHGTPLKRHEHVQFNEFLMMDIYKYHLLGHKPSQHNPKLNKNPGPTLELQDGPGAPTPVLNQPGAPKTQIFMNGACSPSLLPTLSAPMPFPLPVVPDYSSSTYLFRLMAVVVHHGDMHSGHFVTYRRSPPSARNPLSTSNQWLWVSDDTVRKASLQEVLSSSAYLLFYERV
Sequence of USP30^ch2 (P54578 248-318 partner): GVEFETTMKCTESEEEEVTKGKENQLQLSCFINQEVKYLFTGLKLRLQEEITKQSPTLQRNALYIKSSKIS
Sequence of USP30^ch3 A162S (Q70CQ3 64-502 A162S, form open): as the sequence (Q70CQ3 64-502) above, with A99S counted along it
Sequence of USP30^ch3 A162S (P54578 248-318 partner, form open): as the sequence (P54578 248-318 partner) above
Sequence of USP30^ch3 A162S (Q9P2H5 821-846 partner, form open): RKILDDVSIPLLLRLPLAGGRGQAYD

In the case of CC(C)(C)NS(=O)(=O)c1ccc(NC(=O)[C@H](Cc2ccccc2)NC(=O)c2ccc(F)cc2)cc1 [compound 39], the IC50 (USP30^c1) is reported as 0.8 nM and 0.834 nM, the USP30c1 activity (USP30^c1; inhibitor 0.0015625 nM) is reported as 0.9588 and the USP30c1 activity (USP30^c1; inhibitor 0.00625 nM) is reported as 0.9404. For the same compound, the USP30c1 activity (USP30^c1; inhibitor 0.025 nM) was 0.8662, the USP30c1 activity (USP30^c1; inhibitor 0.1 nM) was 0.7469 and the USP30c1 activity (USP30^c1; inhibitor 0.39 nM) was 0.5918. The USP30c1 activity (USP30^c1; inhibitor 1.56 nM) was 0.4353, the USP30c1 activity (USP30^c1; inhibitor 6.25 nM) was 0.2635 and the USP30c1 activity (USP30^c1; inhibitor 25 nM) was 0.1267. For the same compound, the USP30c1 activity (USP30^c1; inhibitor 100 nM) was 0.06264, the USP30c1 activity (USP30^c1; inhibitor 400 nM) was 0.02701 and the USP30c1 activity (USP30^c1; inhibitor 1600 nM) was 0.01055. The “Tm in presence of compound, USP30^ch3 A162S” value (USP30^ch3 A162S) was 60.0 °C, the “Tm in presence of compound, USP30^ch4” value (USP30^ch4) was 60.3 °C and the “ΔTm, USP30^ch4” value (USP30^ch4; 20 µM) was 8.8 °C. The “ΔTm, USP30^ch4” value (USP30^ch4; listed as NK017, 20 µM) was 9.0 °C and 8.7 °C (2×), the “activity in probe-labeling experiment with endogenous USP30” value [1] was “confirmed” and the “Tm in presence of compound, USP30^ch2” value (USP30^ch2) was 59.1 °C.
With CC(C)(CO)NS(=O)(=O)c1ccc(NC(=O)[C@H](Cc2ccccc2)NC(=O)c2ccc(F)cc2)cc1 [NK036] the IC50 (USP30^c1) was 7.4 nM and 7.38 nM, the activity at 1.562 pM (USP30^c1; [2]) was 100% and the activity at 6.25 pM (USP30^c1; [2]) was 101%. It also gave an activity at 25 pM (USP30^c1; [2]) of 98.2%, an activity at 0.0001 µM (USP30^c1; [2]) of 95.3% and an activity at 0.00039 µM (USP30^c1; [2]) of 89%. The activity at 0.00156 µM (USP30^c1; [2]) was 79.6%, the activity at 0.00625 µM (USP30^c1; [2]) was 53.6% and the activity at 0.025 µM (USP30^c1; [2]) was 27%. For the same compound, the activity at 0.1 µM (USP30^c1; [2]) was 10.3%, the activity at 0.4 µM (USP30^c1; [2]) was 3.49% and the activity at 1.6 µM (USP30^c1; [2]) was 1.25%. For the same compound, the “Tm in presence of compound, USP30^ch3 A162S” value (USP30^ch3 A162S) was 59.7 °C, the “Tm in presence of compound, USP30^ch4” value (USP30^ch4) was 59.2 °C and the “ΔTm, USP30^ch4” value (USP30^ch4; 20 µM) was 7.7 °C and 7.6 °C and 7.9 °C. The “activity in probe-labeling experiment with endogenous USP30” value [1] was “confirmed” and the “Tm in presence of compound, USP30^ch2” value (USP30^ch2) was 58.5 °C.
